Assay [1] can be described thus: Alizarin red (ARS) assay, glucose binding affinity. The settings on record: 20 mM phosphate buffer pH 7.4, room temperature. On the procedure:
(§1) The alizarin-red binding assay is a colorimetric assay used to determine the inhibition affinity of boronate compounds to glucose. The assay is based on a colour shift of alizarin-red upon binding to boronate, which shift can be followed by change in absorbance in the 330-340 nm region.
(§2) After 5 minutes of centrifugation at 4000 rpm, the plate is placed in a multi-well spectrometer (SpectraMax, Molecular Devices) for absorption detection.
(§3) The analysis is carried out at room temperature with absorption readings at 330, 340 and 520 nm, respectively. Data obtained for absorption versus concentration of boronate is then fitted (Prism 7, GraphPad) with a sigmoidal function to obtain the Kd value of boronate and ARS.
(§4) Upon complete dissolution of the compound, 200 μM of Alizarin red (ARS) is added to the solution. The ARS-boronate solution is then aliquoted into a 96 multiwell plate (black, flat and clear bottom) 1:1 with appropriate carbohydrate. In particular, D-glucose and L-lactate solutions are prepared in a 20 mM phosphate buffer pH 7.4 at these concentrations respectively: 1000, 500, 250, 100, 50, 25, 10, 5, 2.5, 1, 0.25, 0.1 mM and 2500, 1000, 500, 100, 50, 10, 5, 1, 0.5, 0.1, 0.05, 0.01 mM. The plate with ARS-boronate mixed with carbohydrate is incubated 20 minutes at room temperature. After 5 minutes of centrifugation at 4000 rpm the plate is placed in a multiwell spectrometer (Spectra Max, Molecular Devices) for absorption detection.
(§5) The analysis is carried out at room temperature with absorption readings at 330, 340 and 520 nm, respectively.

The nature of assay [2]: Alizarin red (ARS) assay, lactate binding affinity. The settings on record: 20 mM phosphate buffer pH 7.4, room temperature, N.D. = not detectable. Here is the method: as §1, §2, §3, §4, §5

`O=C(O)CNC(=O)c1cc(B(O)O)cc(S(=O)(=O)c2cccc(B(O)O)c2)c1` [Example 39, (3-Borono-5-((3-boronophenyl)sulfonyl)benzoyl)glycine]: the Kd was 2.4 mM in assay [1] and 27 mM in assay [2].

On to `O=C(O)CNC(=O)c1cc(B(O)O)cc(C(=O)c2cc(B(O)O)cc(C(F)(F)F)c2)c1` [Example 19, (3-Borono-5-(3-borono-5-(trifluoromethyl)benzoyl)benzoyl)glycine], for which the dissociation constant Kd turned out to be 1.5 mM in assay [1] and 17 mM in assay [2].

The molecule `O=C(NC[C@H](NC(=O)c1ccc2c(c1)B(O)OC2)C(=O)O)c1ccc2c(c1)B(O)OC2` [Example 40, (S)-2,3-Bis(1-hydroxy-1,3-dihydrobenzo[c][1,2]oxaborole-6-carboxamido)propanoic acid] yielded a dissociation constant (Kd) in assay [1] of 2 mM.

Regarding `O=C(O)c1cc(CNC(=O)c2ccc(B(O)O)c(F)c2)cc(CNC(=O)c2ccc(B(O)O)c(F)c2)c1` [Example 2, 3,5-Bis((4-borono-3-fluorobenzamido)methyl)benzoic acid], the figures for the dissociation constant Kd in assay [1] and in assay [2] were 3.4 mM and 5.4 mM, respectively.

With `O=C(NC[C@H](NC(=O)c1cc(F)c2c(c1)B(O)OC2)C(=O)O)c1cc(F)c2c(c1)B(O)OC2` [Example 17, (S)-2,3-Bis(4-fluoro-1-hydroxy-1,3-dihydrobenzo[c][1,2]oxaborole-6-carboxamido) propanoic acid], the Kd in assay [1] came out at 1.6 mM.

In the case of `O=C(NCCCC[C@H](NC(=O)c1cc2c(cc1F)B(O)OC2)C(=O)O)c1ccc(B(O)O)cc1F` [Example 14, N^6-(4-Borono-2-fluorobenzoyl)-N^2-(6-fluoro-1-hydroxy-1,3-dihydrobenzo[c][1,2]oxaborole-5-carbonyl)-L-lysine], the values for the equilibrium dissociation constant (Kd) in assay [1] and in assay [2] were 3.2 mM and 16 mM, respectively.

As to `O=C(O)c1cc(B(O)O)c(F)c(S(=O)(=O)c2ccc(F)c(B(O)O)c2)c1` [Example 11, 3-Borono-5-((3-borono-4-fluorophenyl)sulfonyl)-4-fluorobenzoic acid], the dissociation constant (Kd) in assay [1] worked out at 1.8 mM; in assay [2], 17 mM.

`O=C(NC[C@H](NC(=O)c1cc2c(cc1F)COB2O)C(=O)O)c1cc2c(cc1F)COB2O` [Example 16, (S)-2,3-Bis(5-fluoro-1-hydroxy-1,3-dihydrobenzo[c][1,2]oxaborole-6-carboxamido)propanoic acid]: the values for the equilibrium dissociation constant (Kd) in assay [1] and in assay [2] were 4.2 mM and 37 mM, respectively.

Consider `O=C(O)CN=S(=O)(c1cc2c(c(C(F)(F)F)c1)COB2O)c1cc2c(c(C(F)(F)F)c1)COB2O` [Example 38, 2-((Bis(1-hydroxy-4-(trifluoromethyl)-1,3-dihydrobenzo[c][1,2]oxaborol-6-yl)(oxo)-λ6-sulfanylidene)amino)acetic acid], for which, in assay [1], the equilibrium dissociation constant (Kd) was determined as 3.7 mM.

Consider `O=C(O)c1cc(B(O)O)cc(C(=O)c2cc(F)cc(B(O)O)c2)c1` [Example 12, 3-Borono-5-(3-borono-5-fluorobenzoyl)benzoic acid], for which the Kd in assay [1] worked out at 1.1 mM; in assay [2], 18 mM.

In the case of `O=C(O)CN(CCNC(=O)c1cc2c(c(S(=O)(=O)C(F)(F)F)c1)COB2O)C(=O)c1cc2c(c(S(=O)(=O)C(F)(F)F)c1)COB2O` [Example 42, N-(1-Hydroxy-4-((trifluoromethyl)sulfonyl)-1,3-dihydrobenzo[c][1,2]oxaborole-6-carbonyl)-N-(2-(1-hydroxy-4-((trifluoromethyl)sulfonyl)-1,3-dihydrobenzo-[c][1,2]oxaborole-6-carboxamido)ethyl)glycine], binding in assay [1] was put at a Kd of 1.1 mM.

Take `O=C(O)CN(CCNC(=O)c1ccc2c(c1F)B(O)OC2)C(=O)c1ccc2c(c1F)B(O)OC2` [Example 5, N-(7-Fluoro-1-hydroxy-1,3-dihydrobenzo[c][1,2]oxaborole-6-carbonyl)-N-(2-(7-fluoro-1-hydroxy-1,3-dihydrobenzo[c][1,2]oxaborole-6-carboxamido)ethyl)glycine]: the Kd in assay [1] was found to be 0.8 mM; in assay [2], 40 mM.

For the molecule `O=C(O)CCC(=O)N1C[C@H](NC(=O)c2cc3c(c(C(F)(F)F)c2)COB3O)[C@@H](NC(=O)c2cc3c(c(C(F)(F)F)c2)COB3O)C1` [Example 27, 4-((3S,4S)-3,4-Bis(1-hydroxy-4-(trifluoromethyl)-1,3-dihydrobenzo[c][1,2]oxaborole-6-carboxamido)pyrrolidin-1-yl)-4-oxobutanoic acid], the values for the equilibrium dissociation constant (Kd) in assay [1] and in assay [2] were 1.1 mM and 41 mM, respectively.

Turning to `CS(=O)(=O)c1cc(C(=O)NCCN(CC(=O)O)C(=O)c2cc3c(c(S(C)(=O)=O)c2)COB3O)cc2c1COB2O` [Example 41, N-(1-Hydroxy-4-(methylsulfonyl)-1,3-dihydrobenzo[c][1,2]oxaborole-6-carbonyl)-N-(2-(1-hydroxy-4-(methylsulfonyl)-1,3-dihydrobenzo[c][1,2]oxaborole-6-carboxamido)ethyl)glycine], the dissociation constant (Kd) in assay [1] was found to be 1.4 mM; in assay [2] it was 4.4 mM.

In the case of `O=C(O)CN(CCNC(=O)c1cc2c(cc1C(F)(F)F)COB2O)C(=O)c1cc2c(cc1C(F)(F)F)COB2O` [Example 37, N-(1-Hydroxy-5-(trifluoromethyl)-1,3-dihydrobenzo[c][1,2]oxaborole-6-carbonyl)-N-(2-(1-hydroxy-5-(trifluoromethyl)-1,3-dihydrobenzo[c][1,2]oxaborole-6-carboxamido)ethyl)glycine], the Kd in assay [1] came to 4.2 mM; in assay [2], 13 mM.

For `O=C(O)c1cc(CNC(=O)c2ccc(B(O)O)cc2F)cc(CNC(=O)c2ccc(B(O)O)cc2F)c1` [Example 1, 3,5-Bis((4-borono-2-fluorobenzamido)methyl)benzoic acid], the dissociation constant Kd in assay [1] was 3.1 mM; in assay [2], 8.6 mM.

As for `O=C(O)CN(CCNC(=O)c1cc(Cl)c2c(c1)B(O)OC2)C(=O)c1cc(Cl)c2c(c1)B(O)OC2` [Example 32, N-(4-Chloro-1-hydroxy-1,3-dihydrobenzo[c][1,2]oxaborole-6-carbonyl)-N-(2-(4-chloro-1-hydroxy-1,3-dihydrobenzo[c][1,2]oxaborole-6-carboxamido)ethyl)glycine], the dissociation constant Kd in assay [1] worked out at 3.2 mM; in assay [2], 60.6 mM.

`O=C(O)CCC(=O)N1C[C@H](NC(=O)c2ccc3c(c2F)B(O)OC3)[C@@H](NC(=O)c2ccc3c(c2F)B(O)OC3)C1` [Example 21, 4-((3S,4S)-3,4-Bis(7-fluoro-1-hydroxy-1,3-dihydrobenzo[c][1,2]oxaborole-6-carboxamido)pyrrolidin-1-yl)-4-oxobutanoic acid] displayed a Kd in assay [1] of 2.6 mM.

As for `O=C(NC[C@H](NC(=O)c1ccc2c(c1F)B(O)OC2)C(=O)O)c1ccc2c(c1F)B(O)OC2` [Example 15, (S)-2,3-Bis(7-fluoro-1-hydroxy-1,3-dihydrobenzo[c][1,2]oxaborole-6-carboxamido)propanoic acid], the figures for the dissociation constant Kd in assay [1] and in assay [2] were 0.5 mM and 10 mM, respectively.

In the case of `O=C(O)c1c(C(F)(F)F)cc(B(O)O)cc1S(=O)(=O)c1cc(B(O)O)cc(C(F)(F)F)c1` [Example 43, 4-Borono-2-((3-borono-5-(trifluoromethyl)phenyl)sulfonyl)-6-(trifluoromethyl)benzoic acid], the equilibrium dissociation constant (Kd) was 0.7 mM in assay [1] and 22 mM in assay [2].

In assay [1], `O=C(O)CCC(=O)N1C[C@@H](NC(=O)c2cc3c(c(C(F)(F)F)c2)COB3O)[C@H](NC(=O)c2cc3c(c(C(F)(F)F)c2)COB3O)C1` [Example 29, 4-[(3R,4R)-3,4-bis[[1-hydroxy-4-(trifluoromethyl)-3H-2,1-benzoxaborole-6-carbonyl]amino]pyrrolidin-1-yl]-4-oxobutanoic acid] came in with a dissociation constant (Kd) of 2.3 mM.

Regarding `O=C(O)c1cc(B(O)O)cc(C(=O)c2cc(B(O)O)c(F)cc2F)c1` [Example 13, 3-Borono-5-(5-borono-2,4-difluorobenzoyl)benzoic acid], the figures for the Kd in assay [1] and in assay [2] were 0.3 mM and 4 mM, respectively.

Take `O=C(O)CN=S(=O)(c1cc(B(O)O)cc(C(F)F)c1)c1cc(B(O)O)cc(C(F)F)c1` [Example 34, 2-((Bis(3-borono-5-(difluoromethyl)phenyl)(oxo)-λ6-sulfanylidene)amino)acetic acid]: the dissociation constant Kd stood at 2.1 mM in assay [1] and 24.9 mM in assay [2].

Turning to `O=C(O)CNC(=O)c1cc(B(O)O)cc(S(=O)(=O)c2cc(F)cc(B(O)O)c2)c1` [Example 24, (3-Borono-5-((3-borono-5-fluorophenyl)sulfonyl)benzoyl)glycine], the dissociation constant Kd in assay [1] worked out at 1.2 mM; in assay [2] it was 34 mM.

In assay [1], `O=C(O)c1cc(CNC(=O)c2ccc3c(c2F)B(O)OC3)cc(CNC(=O)c2ccc3c(c2F)B(O)OC3)c1` [Example 6, 3,5-Bis((7-fluoro-1-hydroxy-1,3-dihydrobenzo[c][1,2]oxaborole-6-carboxamido)methyl) benzoic acid] yielded a Kd of 1.1 mM.

`O=C(NCCCC[C@H](NC(=O)c1cc2c(cc1F)B(O)OC2)C(=O)O)c1cc2c(cc1F)B(O)OC2` [Example 10, N^2,N^6-Bis(6-fluoro-1-hydroxy-1,3-dihydrobenzo[c][1,2]oxaborole-5-carbonyl)-L-lysine] yielded a Kd in assay [1] of 3.2 mM.

On to `O=C(O)CNC(=O)c1cc(B(O)O)cc(S(=O)(=O)c2cc(B(O)O)cc(S(F)(F)(F)(F)F)c2)c1` [Example 28, (3-Borono-5-((3-borono-5-(pentafluoro-λ^6-sulfanyl)phenyl)sulfonyl)benzoyl)glycine], for which, in assay [1], the equilibrium dissociation constant (Kd) amounted to 0.3 mM.

These data come from patent US11767332B2, “Glucose-sensitive albumin-binding derivatives” (Novo Nordisk A/S, priority 2017, dated 2023).
